We go through 20 compounds from US10683293B2, “Optionally fused heterocyclyl-substituted derivatives of pyrimidine useful for the treatment of inflammatory, metabolic, oncologic and autoimmune diseases” (NUEVOLUTION A/S, priority 2014, dated 2020).

Experiment [1] addresses T1, ligand binding domain of human RORγ (Homo sapiens, UniProt P51449).
T1 construct: host or cells: HEK293t
T1 sequence (P51449 269-508 limits assumed): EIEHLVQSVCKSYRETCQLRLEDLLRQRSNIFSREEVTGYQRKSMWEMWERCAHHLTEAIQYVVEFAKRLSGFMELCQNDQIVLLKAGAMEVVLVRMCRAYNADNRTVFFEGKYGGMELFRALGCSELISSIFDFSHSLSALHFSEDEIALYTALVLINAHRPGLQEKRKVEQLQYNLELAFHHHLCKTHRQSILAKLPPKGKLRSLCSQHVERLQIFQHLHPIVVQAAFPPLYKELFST
Kind of experiment: RORγ Reporter Assay (Gal4). The conditions noted are these: for inhibition at 1 µM: HEK-293T, read-out: Gal4 activity range @ 1 μM (% inhibition); for Gal4 activity range @ 0.1 μM (% inhibition): RORγ Reporter Assay (Gal4), HEK293t reporter cells, compound at 0.1 μM, values are activity range bounds. In kind it is cell-based. The procedure, abridged:
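HEK293t cells expressing Gal4 DBD–human RORγ LBD hybrid with Gal4-UAS firefly luciferase reporter; compounds at final 1,000 nM and 100 nM (0.1% DMSO), triplicate, medium with 10% charcoal-stripped FBS, 24 h at 37 °C. Luminescence read; percent reduction of RORγ activity calculated versus vehicle-only wells.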
On the technique in general: A reporter such as luciferase makes a cellular process visible.

Experiment [2] deals with T2, human RORγt (Ligand Binding Domain) (Homo sapiens, UniProt P51449).
T2 construct: purchased Crelux (Planegg, Germany) batch no PC5032-1
T2 sequence (P51449 269-508 limits assumed): T1 sequence (P51449 269-508 limits assumed)
Briefly: Fluorescence Polarization (FP) Assay. The conditions noted are these: 100 nM human RORγt LBD, 25 nM TAMRA probe, values are activity range bounds. The procedure, abridged:
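In vitro fluorescence polarization binding assay on the RORγt ligand-binding pocket. A TAMRA-labelled RORγt ligand probe (MW 910 g/mol) was used, with DMSO as negative control.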
A general note: In fluorescence polarisation assays a small probe gives low polarisation when free and higher when bound to something large.

The mark [3] stands for this setting: 1 μM test compound, HEK293t RORγ reporter cells, 24 hour.

What is called inhibition is the relative decrease from the control value, in per cent. The term IC50 denotes the concentration that gives 50% inhibition. A high value points to weaker potency in that assay. Consider `CS(=O)(=O)c1ccc(CCNc2ncnc(N(Cc3ccc(C(F)(F)F)cc3)C3CC3)c2F)cc1` [Example A147, N4-cyclopropyl-5-fluoro-N6-[2-(4-methylsulfonylphenyl)ethyl]-N4-[[4-(trifluoromethyl)phenyl]methyl] pyrimidine-4,6-diamine], for which the inhibition at 1 µM in experiment [1] (setting [3]) is above 80%. Also, the “Gal4 activity range @ 0.1 μM (% inhibition)” value in experiment [1] is above 50 % inhibition. This compound displayed a half-inhibitory concentration (IC50) in experiment [2] below 500 nM.

As to `NC(=O)Cc1ccc(CNc2ncnc(N(Cc3cnc(C(F)(F)F)nc3)C3CC3)c2F)cc1` [Example A98, 2-[4-[[[6-[cyclopropyl-[[2-(trifluoromethyl)pyrimidin-5-yl]methyl]amino]-5-fluoro-pyrimidin-4-yl]amino]methyl]phenyl]acetamide], in experiment [1] (setting [3]), the inhibition at 1 µM was above 80%. Further, the “Gal4 activity range @ 0.1 μM (% inhibition)” value in experiment [1] is above 50 % inhibition. For the same compound, in experiment [2], the IC50 was below 500 nM.

Consider `COC(=O)CC(c1ccc(C(F)(F)F)cc1)N(c1ncnc(NCc2ccc(CC(N)=O)cc2)c1F)C1CC1` (centres unmarked) [Example A16, methyl 3-[[6-[[4-(2-amino-2-oxo-ethyl)phenyl]methylamino]-5-fluoro-pyrimidin-4-yl]-cyclopropyl-amino]-3-[4-(trifluoromethyl)phenyl]propanoate], for which the inhibition at 1 µM in experiment [1] (setting [3]) was above 20%. In addition, the “Gal4 activity range @ 0.1 μM (% inhibition)” value in experiment [1] was above 0 % inhibition. For the same compound, the 50% inhibitory concentration (IC50) in experiment [2] is below 500 nM.

In the case of `CN(Cc1cccc(-n2cccn2)c1)c1ncnc(NCc2ccc(CC(N)=O)cc2)c1F` [Example A58, 2-[4-[[[5-fluoro-6-[methyl-[(3-pyrazol-1-ylphenyl)methyl]amino]pyrimidin-4-yl]amino]methyl]phenyl]acetamide], the inhibition at 1 µM in experiment [1] (setting [3]) is above 80%. Besides, the “Gal4 activity range @ 0.1 μM (% inhibition)” value in experiment [1] is above 20 % inhibition. Further, in experiment [2], the 50% inhibitory concentration (IC50) is below 500 nM.

On to `NC(=O)Cc1ccc(CNc2ncnc(N(Cc3ccc(C(F)(F)F)cc3)CC3CC3)c2F)cc1` [Example A18, 2-[4-[[[6-[cyclopropylmethyl-[[4-(trifluoromethyl)phenyl]methyl]amino]-5-fluoro-pyrimidin-4-yl]amino]methyl]phenyl]acetamide], for which, in experiment [1] (setting [3]), the inhibition at 1 µM is above 80%. The “Gal4 activity range @ 0.1 μM (% inhibition)” value in experiment [1] is reported as above 50 % inhibition. Also, the IC50 in experiment [2] is below 500 nM.

On to `NC(=O)Cc1ccc(CNc2ncnc(N(Cc3c(Cl)cccc3Cl)C3CC3)c2F)cc1` [Example A77, 2-[4-[[[6-[cyclopropyl-[(2,6-dichlorophenyl)methyl]amino]-5-fluoro-pyrimidin-4-yl]amino]methyl]phenyl]acetamide], for which the inhibition at 1 µM in experiment [1] (setting [3]) is above 50%. Further, the “Gal4 activity range @ 0.1 μM (% inhibition)” value in experiment [1] is reported as above 20 % inhibition. In experiment [2], the IC50 was below 500 nM.

Regarding `CC(C)n1nc(C2CC2)cc1CN(c1ncnc(NCc2ccc(CC(N)=O)cc2)c1F)C1CC1` [Example A90, 2-[4-[[[6-[cyclopropyl-[(5-cyclopropyl-2-isopropyl-pyrazol-3-yl)methyl]amino]-5-fluoro-pyrimidin-4-yl]amino]methyl]phenyl]acetamide], the inhibition at 1 µM in experiment [1] (setting [3]) is above 0%. Also, the IC50 in experiment [2] is below 500 nM.

As for `NC(=O)Cc1ccc(CNc2ncnc(N(Cc3cc(C(F)(F)F)ccn3)C3CC3)c2F)cc1` [Example A178, 2-[4-[[[6-[cyclopropyl-[[4-(trifluoromethyl)-2-pyridyl]methyl]amino]-5-fluoro-pyrimidin-4-yl]amino]methyl]phenyl]acetamide], the inhibition at 1 µM in experiment [1] (setting [3]) is above 20%. Moreover, in experiment [1], the “Gal4 activity range @ 0.1 μM (% inhibition)” value is given as above 0 % inhibition. This compound showed an IC50 in experiment [2] below 500 nM.

For the compound `Cc1ccc(CN(C)c2ncnc(NCc3ccc(CC(N)=O)cc3)c2F)c(C)c1` [Example A138, 2-[4-[[[6-[(2,4-dimethylphenyl)methyl-methyl-amino]-5-fluoro-pyrimidin-4-yl]amino]methyl]phenyl]acetamide], the inhibition at 1 µM in experiment [1] (setting [3]) was above 20%. Further, the “Gal4 activity range @ 0.1 μM (% inhibition)” value in experiment [1] was above 0 % inhibition. Besides, in experiment [2], the IC50 is below 500 nM.

With `Fc1c(NC[C@H]2CC[C@H](Cc3nnn[nH]3)CC2)ncnc1N(Cc1ccc(C(F)(F)F)cc1)C1CC1` [Example A61, N4-cyclopropyl-5-fluoro-N6-[[4-(1H-tetrazol-5-ylmethyl)cyclohexyl]methyl]-N4-[[4-(trifluoromethyl)phenyl]methyl] pyrimidine-4,6-diamine], the inhibition at 1 µM in experiment [1] (setting [3]) is above 80%. The “Gal4 activity range @ 0.1 μM (% inhibition)” value in experiment [1] is reported as above 20 % inhibition. The IC50 in experiment [2] is below 500 nM.

Turning to `CS(=O)(=O)N1CCC2(CC2Nc2ncnc(N(Cc3ccc(C(F)(F)F)cc3)C3CC3)c2F)C1` (centres unmarked) [Example A172, N6-cyclopropyl-5-fluoro-N4-(6-methylsulfonyl-6-azaspiro[2.4]heptan-2-yl)-N6-[[4-(trifluoromethyl)phenyl]methyl] pyrimidine-4,6-diamine], the inhibition at 1 µM in experiment [1] (setting [3]) was above 80%. For the same compound, the “Gal4 activity range @ 0.1 μM (% inhibition)” value in experiment [1] is given as above 20 % inhibition. For the same compound, the concentration for half-maximal inhibition (IC50) in experiment [2] was below 2000 nM.

In the case of `NC(=O)Cc1ccc(CNc2ncnc(N(Cc3ccc(C(F)(F)F)cc3O)C3CC3)c2F)cc1` [Example A168, 2-[4-[[[6-[cyclopropyl-[[2-hydroxy-4-(trifluoromethyl)phenyl]methyl]amino]-5-fluoro-pyrimidin-4-yl]amino]methyl]phenyl]acetamide], the inhibition at 1 µM in experiment [1] (setting [3]) is above 80%. The “Gal4 activity range @ 0.1 μM (% inhibition)” value in experiment [1] was above 50 % inhibition. Also, the 50% inhibitory concentration (IC50) in experiment [2] is below 500 nM.

With `CCCn1nc(C)cc1CN(C)c1ncnc(NCc2ccc(CC(N)=O)cc2)c1F` [Example A68, 2-[4-[[[5-fluoro-6-[methyl-[(5-methyl-2-propyl-pyrazol-3-yl)methyl]amino]pyrimidin-4-yl]amino]methyl]phenyl]acetamide], the “Gal4 activity range @ 1 μM (% inhibition)” value in experiment [1] (1 μM test compound, HEK293t RORγ reporter cells, 24 hour, 1 µM) is above 50%. In addition, the “Gal4 activity range @ 0.1 μM (% inhibition)” value in experiment [1] is listed as above 0 % inhibition. Besides, in experiment [2], the half-inhibitory concentration (IC50) is below 500 nM.

Regarding `CS(=O)(=O)N1CC2CCC(Nc3ncnc(N(Cc4ccc(C(F)(F)F)cc4)C4CC4)c3F)C2C1` (centres unmarked) [Example A175, N6-cyclopropyl-5-fluoro-N4-(2-methylsulfonyl-3,3a,4,5,6,6a-hexahydro-1H-cyclopenta[c]pyrrol-4-yl)-N6-[[4-(trifluoromethyl)phenyl]methyl] pyrimidine-4,6-diamine], the inhibition at 1 µM in experiment [1] (setting [3]) is above 80%. Also, in experiment [1], the “Gal4 activity range @ 0.1 μM (% inhibition)” value is given as above 50 % inhibition. The compound also gave a concentration for half-maximal inhibition (IC50) in experiment [2] below 500 nM.

For the compound `NC(=O)Cc1ccc(CNc2ncnc3c2ccn3Cc2ccc(C(F)(F)F)cc2)cc1` [Example A164, 2-[4-[[[7-[[4-(trifluoromethyl)phenyl]methyl]pyrrolo[2,3-d]pyrimidin-4-yl]amino]methyl]phenyl]acetamide], the inhibition at 1 µM in experiment [1] (setting [3]) is above 50%. In addition, the “Gal4 activity range @ 0.1 μM (% inhibition)” value in experiment [1] is reported as above 20 % inhibition. In experiment [2], this compound registered a half-inhibitory concentration (IC50) below 1000 nM.

As to `CC(c1ccc(C(F)(F)F)cc1)N(c1ncnc(NCC2CCN(S(C)(=O)=O)CC2)c1F)C1CC1` (centres unmarked) [Example A73, N4-cyclopropyl-5-fluoro-N6-[(1-methylsulfonyl-4-piperidyl)methyl]-N4-[1-[4-(trifluoromethyl)phenyl]ethyl] pyrimidine-4,6-diamine], the inhibition at 1 µM in experiment [1] (setting [3]) is above 80%. Besides, the “Gal4 activity range @ 0.1 μM (% inhibition)” value in experiment [1] is given as above 80 % inhibition. In experiment [2], this compound gave a 50% inhibitory concentration (IC50) below 500 nM.

Regarding `CS(=O)(=O)Nc1ncc(CNc2ncnc(N(Cc3ccc(C(F)(F)F)cc3)C3CC3)c2F)cc1F` [Example A109, N-[5-[[[6-[cyclopropyl-[[4-(trifluoromethyl)phenyl]methyl]amino]-5-fluoro-pyrimidin-4-yl]amino]methyl]-3-fluoro-2-pyridyl]methanesulfonamide], the inhibition at 1 µM in experiment [1] (setting [3]) is above 80%. Moreover, the “Gal4 activity range @ 0.1 μM (% inhibition)” value in experiment [1] was above 0 % inhibition. For the same compound, the half-maximal inhibitory concentration (IC50) in experiment [2] is below 500 nM.

With `CCN(CC1COc2ccccc2O1)c1ncnc(NCc2ccc(CC(N)=O)cc2)c1F` (centres unmarked) [Example A145, 2-[4-[[[6-[2,3-dihydro-1,4-benzodioxin-3-ylmethyl(ethyl)amino]-5-fluoro-pyrimidin-4-yl]amino]methyl]phenyl]acetamide], the inhibition at 1 µM in experiment [1] (setting [3]) is above 50%. The “Gal4 activity range @ 0.1 μM (% inhibition)” value in experiment [1] is listed as above 0 % inhibition. This compound returned an IC50 in experiment [2] below 500 nM.

For `NC(=O)Cc1ccc(CNc2ncnc(N(Cc3ccc(C(F)(F)F)cc3)C3CC3)c2F)cc1` [Example A2, 2-[4-[[[6-[cyclopropyl-[[4-(trifluoromethyl)phenyl]methyl]amino]-5-fluoro-pyrimidin-4-yl]amino]methyl]phenyl]acetamide], the inhibition at 1 µM in experiment [1] (setting [3]) is above 80%. In addition, the “Gal4 activity range @ 0.1 μM (% inhibition)” value in experiment [1] is on record as above 80 % inhibition. In addition, the IC50 in experiment [2] was below 500 nM.

In the case of `CS(=O)(=O)N1CCC(C2(Nc3ncnc(N(Cc4ccc(C(F)(F)F)cc4)C4CC4)c3F)CC2)CC1` [Example A165, N6-cyclopropyl-5-fluoro-N4-[1-(1-methylsulfonyl-4-piperidyl)cyclopropyl]-N6-[[4-(trifluoromethyl)phenyl]methyl] pyrimidine-4,6-diamine], the inhibition at 1 µM in experiment [1] (setting [3]) is above 80%. Further, in experiment [1], the “Gal4 activity range @ 0.1 μM (% inhibition)” value was above 50 % inhibition. Also, in experiment [2], the IC50 is below 500 nM.
